Measurements from PubChem BioAssay (NCI).
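Cells were grown in 96-well plates and exposed to each compound for 48 hours at five concentrations; endpoints were interpolated linearly between bracketing concentrations, or set to the highest concentration if not reached. The concentration for 50% growth inhibition is given as GI50. At the TGI there is no net growth.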 Where a SMILES comes first, the peptide text is derived from it. The star is where a group is joined. Cbz = O=C(OCc1ccccc1)*

Experiments:
Experiment in all cases: growth of human tumour cells (NCI), 48 h
A498 renal = tested on: A498 renal
A549 NSCLC = tested on: A549 NSCLC
DU-145 prostate = tested on: DU-145 prostate
HL-60(TB) leukemia = tested on: HL-60(TB) leukemia
MALME-3M melanoma = tested on: MALME-3M melanoma
MDA-MB-231 breast = tested on: MDA-MB-231 breast
NCI-H522 lung = tested on: NCI-H522 lung
SK-MEL-5 melanoma = tested on: SK-MEL-5 melanoma
SNB-19 CNS = tested on: SNB-19 CNS
TK-10 renal = tested on: TK-10 renal

SMILES	TGI (A498 renal) [µM]	TGI (A549 NSCLC) [µM]	TGI (DU-145 prostate) [µM]	TGI (HL-60(TB) leukemia) [µM]	TGI (MALME-3M melanoma) [µM]	TGI (MDA-MB-231 breast) [µM]	TGI (NCI-H522 lung) [µM]	TGI (SK-MEL-5 melanoma) [µM]	TGI (SNB-19 CNS) [µM]	TGI (TK-10 renal) [µM]	GI50 (NCI-H522 lung) [µM]	GI50 (A498 renal) [µM]	GI50 (A549 NSCLC) [µM]	GI50 (DU-145 prostate) [µM]	GI50 (HL-60(TB) leukemia) [µM]	GI50 (MALME-3M melanoma) [µM]	GI50 (MDA-MB-231 breast) [µM]	GI50 (SK-MEL-5 melanoma) [µM]	GI50 (SNB-19 CNS) [µM]	GI50 (TK-10 renal) [µM]
CN(C)N1C(=C(C#N)C#N)C(c2ccccc2)CC1C#N (stereo not drawn)	> 100	> 100	> 100	> 100	> 100	> 100	> 100	> 100	> 100	> 100										
Cc1c2ccccc2c(/C=N/NC(=O)CSCC(=O)N/N=C/c2c3ccccc3c(C)c3ccccc23)c2ccccc12	> 93.3	> 100	> 100	> 100	97.3	> 75	> 100	> 100	> 100	> 95.4	> 100									
N#C/C=C(/NC(=O)Nc1ccccc1)N1CCCC1	> 100	> 61.3	> 85.6	> 100	> 66.9	> 100	> 60.8	> 100	> 45.6	> 55.4										
COc1ccc(C2c3cc4c(cc3OC(N3CCOCC3)C2C)OCO4)cc1OC (stereo not drawn)	43	> 85	> 79.7	> 29.1	> 100	> 100	22.8	> 100	77.6	> 88.8										
COC(=O)c1sc2nc(Nc3ccccc3)c(=Nc3ccccc3)sc2c1C	> 100	> 100	> 100	> 100	> 100	> 100	> 100	> 100	> 100	> 100										
O=C(CSc1nc2ccccc2c(=O)n1-c1ccccc1)N=Nc1c(O)[nH]c2ccc(Br)cc12	40.8	10.9	3.39	12.8	5.74	3.58	9.69	> 20.6	27.2	12.4										
O=C1CC(Nc2ccccc2)c2c(Cl)sc(Cl)c21 (stereo not drawn)	6.21	6	3	1.36	2.83	3.42	0.315	16.8	20.5	3.26										
OC1C2CN3CCN(C2)CC1(c1ccccc1)C3 (stereo not drawn)	> 100		> 100	> 100	> 100	> 100	> 100	> 100	> 100	> 100										
COc1ccc(OC)c([N+](=O)[O-])c1-c1nc2sc(Cl)cn2c1/C=N/N=C(N)N	33.7	58.3	42.8	29	42.4	35.7	37.9	32.3	43.4	48.7										
COc1cc(O)c2c(=O)c3cccc(C)c3[nH]c2c1	> 10	> 10	> 10	> 10	> 10	> 10	> 10	> 10	> 10	> 10										
CN(C)CCNc1c(O)c2c(c(O)c1Cl)C(=O)C=CC2=O	9.74	5.41	3.36	4.33	3.64	2.72	3.52	2.88	3.76	5.68										
O=S(=O)(O)c1cc(O)c(N=NC2S(=O)(=O)OCCOS2(=O)=O)c2ccccc12	> 100	> 100	> 100	> 100	> 100	> 100	> 100	> 100	> 100	> 100										
O=C(Nc1ccc(Cl)cc1)c1cc(S(=O)(=O)Nc2nc3ncccc3[nH]2)c(SSc2cc(Cl)c(C(=O)Nc3ccc(Cl)cc3)cc2S(=O)(=O)Nc2nc3ncccc3[nH]2)cc1Cl	> 100	> 100	> 100	> 100	> 100	> 100	> 100	> 100	> 100	> 100										
C[C@]12CCC(=O)C=C1CC[C@@H]1[C@@H]2CC[C@]2(C)C(=O)/C(=C/c3ccc([N+](=O)[O-])cc3)C[C@@H]12	48.9	> 100	> 100	> 100	> 100	> 100	> 100	> 100	> 100	> 100										
CC1=C[C@H](C[C@]2(C)c3c(c4c(C)cccc4oc3=O)O[C@@H]2C)OC1=O	> 100	> 100	> 100	52.5	> 100	> 100	49.6	> 100	> 100	> 100										
CCOC(=O)CCC(NC(=O)C(CC(=O)OC)NC(=O)OCc1ccccc1)C(=O)NC(CC(=O)OC)C(=O)NC(CCC(=O)OCC)C(=O)NC(CC(=O)OC)C(=O)NC(CCC(=O)OCC)C(=O)NC(CC(=O)OCC)C(=O)OCC (stereo not drawn) (Cbz-D(OMe)E(OEt)D(OMe)E(OEt)D(OMe)E(OEt)D(OEt)-OEt; configuration not given here)	> 100	> 100	> 100	> 100	> 100	> 100	> 100	> 100	> 100	> 100										
CCCCOc1ccc(/C=C/C2=[N+](CCO)CCO2)cc1	> 100	> 100	> 100	40.2	> 100	> 100	> 100	> 100	> 100	> 100										
CSC(=Nc1ccccc1)c1c(C)[nH]n(-c2ccccc2)c1=O	> 100	> 100	> 100	> 100	> 100	> 100	> 100	> 100	> 100	> 100										
CC1=NN(c2ccccc2)C(=O)/C1=C1\SC(c2ccccc2)(c2ccccc2)c2ccccc21	> 100	> 100	> 100	> 100	> 100	> 100	> 100	> 100	> 100	> 100										

SMILES	TGI (A498 renal) [µM]	TGI (A549 NSCLC) [µM]	TGI (DU-145 prostate) [µM]	TGI (HL-60(TB) leukemia) [µM]	TGI (MALME-3M melanoma) [µM]	TGI (MDA-MB-231 breast) [µM]	TGI (NCI-H522 lung) [µM]	TGI (SK-MEL-5 melanoma) [µM]	TGI (SNB-19 CNS) [µM]	TGI (TK-10 renal) [µM]	GI50 (NCI-H522 lung) [µM]	GI50 (A498 renal) [µM]	GI50 (A549 NSCLC) [µM]	GI50 (DU-145 prostate) [µM]	GI50 (HL-60(TB) leukemia) [µM]	GI50 (MALME-3M melanoma) [µM]	GI50 (MDA-MB-231 breast) [µM]	GI50 (SK-MEL-5 melanoma) [µM]	GI50 (SNB-19 CNS) [µM]	GI50 (TK-10 renal) [µM]
CCOC(=O)c1nc(SC)sc1NC(=O)c1ccc(OC)cc1	84.6	> 100	> 100	> 100	88.8	> 100	> 100	> 100	> 100	54.7										
COc1cc2ncnc(Nc3cccc(Br)c3)c2cc1OC	29.4	> 69.1	34.2	> 75.2	32.2	21.5	11.1	5.67	> 77.4	13.5										
Cc1cc(C)c2c(-c3ccccc3)cc(=O)[nH]c2c1	> 100	> 100	> 100	> 100	> 100	> 100	> 100	> 100		> 100										
COc1ccccc1C1C(C#N)=C(N)SC(N)=C1C#N	> 100	> 100	> 100	> 100	> 100	60.7	76.2	> 100	> 100	> 100	29.9	> 100	> 100	41.3	50.3	81.3	21.6	90.5	> 100	> 100
CCN1CC2=C(OC(N)=C(C#N)C2c2ccc(Cl)cc2)/C(=C/c2ccc(Cl)cc2)C1 (stereo not drawn)	37.5	49.1	> 100	> 100	84.7	69.2	> 100	> 100	51	> 100										
CCCCCCc1cc2cc(C(=O)Nc3nc(C45CC6CC(CC(C6)C4)C5)cs3)c(=O)oc2cc1O	31.3	54.4	> 100	19.8	51.1	22.3	8.33	24.7	60.1	34.2										
Cn1c2ccccc2n2c(=O)c(-c3ccc(Cl)cc3)nnc12	> 100	> 100	> 100	> 100	> 100	> 100	> 100	> 100	> 100	> 100										
CCCCOC(=O)Nc1ccc(S(=O)(=O)Nc2c(Cl)cccc2Cl)cc1	63.1	> 100	> 100	> 100	62.7	67.2	> 100	28	> 100	77.9										
COc1cc(/C=C2\CC3C4CC=C5C[C@@H](O)CC[C@]5(C)C4CC[C@]3(C)\C2=N\O)cc(OC)c1OC (stereo partly drawn)	42.6	> 100	> 100	> 100	50	74	> 100	19.2	> 100	> 100										
C[N+](C)(N)Cc1nc(-c2ccc(Cl)cc2)no1	> 100	> 100	> 100	> 100	> 100	> 100	> 100	> 100	> 100	> 100										
CCOC(=O)CCCN	> 100	> 100	> 100	> 100	> 100	> 100	> 100	> 100	> 100	> 100										
COc1nc2ncc([C@@H](OC(C)=O)[C@@H](COC(C)=O)OC(C)=O)nc2c(=O)n1C	> 100	> 100	> 100	87.8	> 100	> 100	> 100	> 100	> 100	> 100										
CCOC(=O)N1CCC2(CC1)C[C@](Sc1ccccc1)(C(C)=O)[C@H](C)O2	> 100	> 100	> 100	> 100	> 100	> 100	> 100	> 100	> 100	> 100										
COc1cc(OC)c(-n2[nH]c(=O)n(C)c2=O)c(OC)c1	> 100	> 100	> 100	> 100	> 100	> 100	> 100		> 100	> 100										
CN(C)CC1CCC/C(=C\c2ccc(Cl)c(Cl)c2)C1=O (stereo not drawn)	26.9	30.4	23	4.06	20.3	10.9	4.1	22.7	22.4	8.19										
Cc1ccc2[nH]c3c(c2c1)C1CCC(C(C)(C)C)CC1C1C(=O)N(c2ccc(Oc4ccccc4)cc2)C(=O)C31 (stereo not drawn)	31.5	> 100	> 100	8.09	41.9	> 100	45	> 100	> 71.9	84.4										
CN(C(=O)Cc1cc(Cl)c(Cl)cc1NC(=O)CCCN)[C@H]1CCCC[C@@H]1N1CCCC1	32.4	83.1	> 100	52.8	31.1	77.4	29.8	29.9	45.4	> 100										
C/C(=N/NC(=S)N1CCCCCC1)c1cccc(/C(C)=N\NC(=S)N2CCCCCC2)n1	2.85	4.86	6.04	5.26	2.28	3.41	6.42	2.72	9.43	3.29										
